Laboratory results reported in patent US20250171423A1, “PHARMACEUTICAL COMPOUNDS FOR THE TREATMENT OF COMPLEMENT MEDIATED DISORDERS” (Achillion Pharmaceuticals, Inc., priority 2020, published 2025).
Where a name gives a salt, the structure may show the parent alone.

Biological target: T1, Human complement C1s enzyme (Homo sapiens, UniProt P09871)
T1 construct: purified from human serum, Complement Technology, Inc; purchased Complement Technology, Inc; host or cells: human serum
T1 sequence (P09871 438-688 limits assumed): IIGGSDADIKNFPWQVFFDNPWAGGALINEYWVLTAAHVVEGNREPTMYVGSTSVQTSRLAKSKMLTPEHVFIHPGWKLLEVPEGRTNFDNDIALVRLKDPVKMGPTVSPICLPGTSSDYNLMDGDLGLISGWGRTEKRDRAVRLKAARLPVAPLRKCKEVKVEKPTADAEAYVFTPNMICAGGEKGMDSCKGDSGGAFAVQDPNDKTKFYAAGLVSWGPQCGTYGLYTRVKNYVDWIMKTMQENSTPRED
T1 sequence (P09871 16-437 partner limits assumed): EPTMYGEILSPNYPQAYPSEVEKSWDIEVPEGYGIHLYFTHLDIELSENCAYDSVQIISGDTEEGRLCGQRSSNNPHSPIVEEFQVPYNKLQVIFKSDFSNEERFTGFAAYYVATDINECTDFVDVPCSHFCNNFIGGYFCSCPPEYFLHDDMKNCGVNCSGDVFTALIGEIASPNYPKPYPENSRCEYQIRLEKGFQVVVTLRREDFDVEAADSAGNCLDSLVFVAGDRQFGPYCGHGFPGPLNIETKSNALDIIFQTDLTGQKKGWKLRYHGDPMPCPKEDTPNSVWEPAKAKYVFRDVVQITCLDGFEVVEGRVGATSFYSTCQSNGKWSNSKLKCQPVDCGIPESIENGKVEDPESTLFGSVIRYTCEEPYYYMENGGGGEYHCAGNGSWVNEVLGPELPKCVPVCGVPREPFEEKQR
Assay: Human C1s Enzyme Assay
Format: biochemical
Conditions: human C1s 1.16 nM, 5 min preincubation, substrate Z-L-Lys-SBzl 100 μM, A405; read-out: C1s Protease Activity
Method: The assay of Example 3 was used to determine the IC50's of the compounds. Other standard complement assays are also available.
Example 3. Human C1s Enzyme Assay
Human complement C1s enzyme (purified from human serum, Complement Technology, Inc.) at 1.16 nM final concentration was incubated with test compound at various concentrations for 5 min at room temperature in 50 mM Tris, 1 M NaCl, pH 7.5. A synthetic substrate Z-L-Lys-SBzl and DTNB (Ellman's reagent) were added to final concentrations of 100 μM each. Absorbance at 405 nm (A405) was recorded at 30 second intervals for 30 min using a microplate spectrophotometer. IC50 values were calculated by nonlinear regression of complement C1s reaction rates as a function of test compound concentration.

Row | SMILES | IC50 [nM]
1 | N=C(N)c1csc(CNC(=O)[C@@H]2C[C@@H](Cc3ccc(C(F)(F)F)cc3)CN2C(=O)CNC(=O)c2ccc(Oc3ccccc3)cc2)c1 [Compound 17, (2S,4R)-N-((4-carbamimidoylthiophen-2-yl)methyl)-1-((4-phenoxybenzoyl)glycyl)-4-(4-(trifluoromethyl)benzyl)pyrrolidine-2-carboxamide] | < 100
2 | COC[C@@]12C[C@@H]1N(C(=O)CNC(=O)c1ccc(Oc3ccccc3)cc1)[C@H](C(=O)NCc1cc(C(=N)N)cs1)C2 [Compound 20, (1S,3S,5R)-N-((4-carbamimidoylthiophen-2-yl)methyl)-5-(methoxymethyl)-2-((4-phenoxybenzoyl)glycyl)-2-azabicyclo[3.1.0]hexane-3-carboxamide] | < 100
3 | N=C(N)c1csc(CNC(=O)[C@@H]2C[C@@]3(CN2C(=O)CNC(=O)c2ccc(Oc4ccccc4)cc2)CC3(F)F)c1 [Compound 21, (3S,6S)-N-((4-carbamimidoylthiophen-2-yl)methyl)-1,1-difluoro-5-((4-phenoxy-benzoyl)glycyl)-5-azaspiro[2.4]heptane-6-carboxamide] | < 100
4 | N=C(N)c1csc(CNC(=O)[C@@H]2C[C@]3(CN2C(=O)CNC(=O)c2ccc(Oc4ccccc4)cc2)CC3(F)F)c1 [Compound 22, (3R,6S)-N-((4-carbamimidoylthiophen-2-yl)methyl)-1,1-difluoro-5-((4-phenoxy-benzoyl)glycyl)-5-azaspiro[2.4]heptane-6-carboxamide] | < 100
5 | C[C@@]12C[C@@H]1N(C(=O)CNC(=O)c1ccc(Oc3ccccc3)cc1)[C@H](C(=O)NCc1cc(S(C)(=N)=O)cs1)C2 (stereo partly drawn) [Compound 23, (1S,3S,5S)-5-methyl-N-((4-(S-methylsulfonimidoyl)thiophen-2-yl)methyl)-2-((4-phenoxybenzoyl)glycyl)-2-azabicyclo[3.1.0]hexane-3-carboxamide] | > 1000
6 | C[C@H](O)[C@H](O)[C@@H](O)[C@@H](O)CNCC(=O)N1[C@H]2C[C@@]2(C)C[C@H]1C(=O)NCc1cc(C(=N)N)cs1 [Compound 24, (1S,3S,5S)-N-((4-carbamimidoylthiophen-2-yl)methyl)-5-methyl-2-(((2S,3S,4S,5S)-2,3,4,5-tetrahydroxyhexyl)glycyl)-2-azabicyclo[3.1.0]hexane-3-carboxamide hydrochloride] | > 1000
7 | CC(=O)O/N=C(\N)c1csc(CNC(=O)[C@@H]2C[C@]3(C)C[C@@H]3N2C(=O)CN(C[C@H](O)[C@H](O)[C@@H](O)[C@H](C)O)C(=O)OC(C)(C)C)c1 [Compound 25, tert-butyl (2-((1S,3S,5S)-3-(((4-(N-acetoxycarbamimidoyl)thiophen-2-yl)methyl)-carbamoyl)-5-methyl-2-azabicyclo[3.1.0]hexan-2-yl)-2-oxoethyl)((2S,3S,4S,5S)-2,3,4,5-tetrahydroxyhexyl)carbamate] | > 1000
8 | N=C(N)c1csc(CNC(=O)[C@@H]2CC(=C(F)F)CN2C(=O)CNC(=O)CCCOc2ccccc2)c1 [Compound 26, (S)-N-((4-carbamimidoylthiophen-2-yl)methyl)-4-(difluoromethylene)-1-((4-phenoxy-butanoyl)glycyl)pyrrolidine-2-carboxamide] | < 100
9 | CO[C@@H]1C[C@@H](C(=O)NCc2cc(C(=N)N)cs2)N(C(=O)CNC(=O)CCCOc2ccccc2)C1 [Compound 27, (2S,4R)-N-((4-carbamimidoylthiophen-2-yl)methyl)-4-methoxy-1-((4-phenoxy-butanoyl)glycyl)pyrrolidine-2-carboxamide] | < 100
10 | N=C(N)c1csc(CNC(=O)[C@@H]2CC3(CN2C(=O)CNC(=O)CCCOc2ccccc2)OCCO3)c1 [Compound 28, (S)-N-((4-carbamimidoylthiophen-2-yl)methyl)-7-((4-phenoxybutanoyl)glycyl)-1,4-dioxa-7-azaspiro[4.4]nonane-8-carboxamide] | < 100
